In one assay the target is T1, purified human COMT enzyme of the Val158 variant (membrane-bound MB-COMT) (Homo sapiens, UniProt P21964).
T1 construct: 6xHis or 10xHis (C)
T1 sequence (P21964 1-271): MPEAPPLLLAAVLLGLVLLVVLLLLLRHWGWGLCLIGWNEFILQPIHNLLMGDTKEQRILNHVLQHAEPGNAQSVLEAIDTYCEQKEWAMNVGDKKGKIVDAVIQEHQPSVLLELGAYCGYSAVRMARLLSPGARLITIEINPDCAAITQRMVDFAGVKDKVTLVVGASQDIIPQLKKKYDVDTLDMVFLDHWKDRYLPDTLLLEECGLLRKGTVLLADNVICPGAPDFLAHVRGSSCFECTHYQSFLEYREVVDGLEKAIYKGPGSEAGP
In words: MB-COMT inhibition, Esculetin or Fluorescence Polarization assay.
Details: not given
It is filed as biochemical.
`COc1ccc(-c2nc3cc(-n4ccc(=O)c(O)c4)ccc3[nH]2)cc1` [Example 2, 3-hydroxy-1-[2-(4-methoxyphenyl)-1H-benzimidazol-5-yl]pyridin-4(1H)-one] displayed an IC50 of 64 nM.

Staying with this assay, now noted: Esculetin or Fluorescence Polarization assay; human Val158 variant; read-out: MB-COMT IC50-.
With `O=c1ccn(-c2nccc(-c3c(Cl)cnc4[nH]ccc34)c2F)cc1O` [Example 9, 4′-(5-chloro-1H-pyrrolo[2,3-b]pyridin-4-yl)-3′-fluoro-3-hydroxy-4H-1,2′-bipyridin-4-one], the IC50 is 8 nM.

With `COc1ncc(F)cc1C(O)Cc1cc(=O)c(O)cn1-c1cccc(-c2ccccc2)c1` (centres unmarked) [Example 11, 1-biphenyl-3-yl-2-[2-(5-fluoro-2-methoxypyridin-3-yl)-2-hydroxyethyl]-5-hydroxypyridin-4(1H)-one], the IC50 amounted to 87 nM. On the same count and under the same terms, the result for `CC(O)c1cc(=O)c(O)cn1-c1cccc(-c2c(Cl)cnc3[nH]ccc23)c1` (single isomer, unassigned) [Example 13, 1-[3-(5-chloro-1H-pyrrolo[2,3-b]pyridin-4-yl)phenyl]-5-hydroxy-2-(1-hydroxyethyl)-pyridin-4(1H)-one] reads 41 nM. Still for that read-out and setting: the value for `O=c1cc(C(O)C(F)(F)F)n(-c2cccc(-c3cccc4ncccc34)c2)cc1O` (centres unmarked) [Example 15, 5-hydroxy-1-[3-(quinolin-5-yl)phenyl]-2-(2,2,2-trifluoro-1-hydroxyethyl)pyridin-4(1H)-one] was 70 nM; that for `Cc1cc(=O)c(O)cn1-c1cccc2c1ncn2Cc1c(F)cccc1Cl` [Example 10, 1-[1-(2-Chloro-6-fluorobenzyl)-1H-benzimidazol-4-yl]-5-hydroxy-2-methylpyridin-4(1H)-one] was 191 nM; that for `O=c1cc(C(O)C#Cc2ccccc2)n(-c2cccc(-c3c(Cl)cnc4[nH]ccc34)c2)cc1O` (centres unmarked) [Example 12, 1-[3-(5-chloro-1H-pyrrolo[2,3-b]pyridin-4-yl)phenyl]-5-hydroxy-2-(1-hydroxy-3-phenylprop-2-yn-1-yl)pyridin-4(1H)-one] was 26 nM. On the same count and under the same terms, the value for `Nc1cc(=O)c(O)cn1-c1cccc(-c2ccccc2)c1` [Example 3, 2-Amino-1-(biphenyl-3-yl)-5-hydroxypyridin-4(1H)-one] was 75 nM; that for `O=c1ccn(-c2cccc(-c3cccc4[nH]ncc34)n2)cc1O` [Example 8, 3-Hydroxy-6′-(1H-indazol-4-yl)-4H-1,2′-bipyridin-4-one] was 21 nM. As for `CNc1cc(=O)c(O)cn1-c1cccc(-c2ccccc2)c1` [Example 4, 1-(Biphenyl-3-yl)-5-hydroxy-2-(methylamino)pyridin-4(1H)-one], the IC50 turned out to be 100 nM.

Consider `CC(O)c1cc(=O)c(O)cn1-c1cccc(-c2cncc3ccccc23)c1` (centres unmarked) [Example 14, 5-hydroxy-2-(1-hydroxyethyl)-1-[3-(isoquinolin-4-yl)phenyl]pyridin-4(1H)-one], for which the IC50 was 226 nM.

These data come from patent publication US9024032B2, “Inhibitors of catechol O-methyl transferase and their use in the treatment of psychotic disorders” (Merck Sharp & Dohme Corp., priority 2010, dated 2015).
